# Laboratory results: BindingDB's records for doi:10.1016/j.bioorg.2011.05.001 (Medical University of Lodz, 2011)
# pIC50: −log10 of the molar value. Structures can show the parent of a compound that is named as a salt.
# Key:
# Acetylcholinesterase = Acetylcholinesterase (Electrophorus electricus, UniProt O42275); assay: Enzyme Assay
# Description: (§1) Enzyme activity using acetylcholinesterase (AChE) and butyrylcholinesterase (BChE).
# [1] = biological target: Carboxylic ester hydrolase (Equus caballus, UniProt Q9N1N9); assay: Enzyme Assay
# Sequence of Carboxylic ester hydrolase (Q9N1N9 whole entry): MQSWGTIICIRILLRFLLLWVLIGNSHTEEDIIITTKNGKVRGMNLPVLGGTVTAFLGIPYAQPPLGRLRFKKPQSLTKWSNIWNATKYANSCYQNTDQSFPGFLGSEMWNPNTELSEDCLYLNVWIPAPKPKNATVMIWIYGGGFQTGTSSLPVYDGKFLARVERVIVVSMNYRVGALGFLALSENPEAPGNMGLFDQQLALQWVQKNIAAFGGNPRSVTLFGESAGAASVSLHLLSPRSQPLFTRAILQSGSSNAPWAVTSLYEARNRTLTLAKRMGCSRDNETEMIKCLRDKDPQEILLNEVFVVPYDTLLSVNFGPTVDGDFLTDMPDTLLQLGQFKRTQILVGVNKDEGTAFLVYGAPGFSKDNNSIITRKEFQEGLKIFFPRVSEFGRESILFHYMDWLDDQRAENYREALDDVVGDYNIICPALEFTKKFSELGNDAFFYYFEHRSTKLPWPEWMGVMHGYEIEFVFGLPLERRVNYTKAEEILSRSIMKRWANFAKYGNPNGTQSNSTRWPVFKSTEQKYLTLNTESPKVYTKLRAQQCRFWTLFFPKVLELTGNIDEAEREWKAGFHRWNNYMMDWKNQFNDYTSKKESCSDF
# Description: as §1
# Sequence of Acetylcholinesterase (O42275 whole entry): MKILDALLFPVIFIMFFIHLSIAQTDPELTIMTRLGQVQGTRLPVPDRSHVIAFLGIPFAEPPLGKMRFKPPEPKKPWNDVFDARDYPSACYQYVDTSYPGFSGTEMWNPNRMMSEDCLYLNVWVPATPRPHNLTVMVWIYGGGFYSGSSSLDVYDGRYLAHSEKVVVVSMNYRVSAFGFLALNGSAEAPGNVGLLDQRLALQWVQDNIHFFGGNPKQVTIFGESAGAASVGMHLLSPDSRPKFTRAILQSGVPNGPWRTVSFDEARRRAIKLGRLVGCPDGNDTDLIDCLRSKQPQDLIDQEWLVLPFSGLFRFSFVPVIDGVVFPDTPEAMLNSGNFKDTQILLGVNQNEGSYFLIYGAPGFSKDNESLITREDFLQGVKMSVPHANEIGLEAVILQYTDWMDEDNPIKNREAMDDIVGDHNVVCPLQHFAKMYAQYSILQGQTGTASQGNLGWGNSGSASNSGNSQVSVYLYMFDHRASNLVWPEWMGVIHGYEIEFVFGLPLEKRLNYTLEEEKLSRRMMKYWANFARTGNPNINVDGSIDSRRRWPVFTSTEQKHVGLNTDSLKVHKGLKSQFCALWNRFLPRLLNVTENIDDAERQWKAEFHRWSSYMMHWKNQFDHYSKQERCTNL
SMILES,pIC50 (Acetylcholinesterase),pIC50 [1]
"NNc1ccc(C(=O)NCCCCCCCNc2c3c(nc4ccccc24)CCCC3)cn1 [Nicotinamide hydrochloride analog, 6c]",6.14,8.95
"NNc1ccc(C(=O)NCCCCNc2c3c(nc4ccccc24)CCCC3)cn1 [Nicotinamide hydrochloride analog, 6a]",6.36,8.84
"NNc1ccc(C(=O)NCCCCCNc2c3c(nc4ccccc24)CCCC3)cn1 [Nicotinamide hydrochloride analog, 6b]",6.51,–
